Laboratory results from patent publication US20190284129A1, “LIPID COMPOUNDS AND COMPOSITIONS AND THEIR OPTHALMIC USE” (BIOZEP AS, priority 2015, published 2019).

Experiments:
Type in all cases: cell-based
neuroblastoma cells = experiment: mitochondrial DNA damage in neuroblastoma cells (RT-qPCR, TaqI cleavage); settings: 10 μM compound, 24 hours, high glucose (20 mM); FIG. 3
Experimental: In this study, neuroblastoma cells were cultivated at near confluency (50-75%) in DMEM/F12/10% serum high glucose (20 mM) supplied with 10 μM BIZ-101 or BIZ-105 for 24 hours prior to analyses. These conditions readily induce mtDNA damage that is representative of that accumulating during aging as the result of age-associated oxidative stress.
For DNA damage analyses, cells were washed, and DNA isolated using Qiagen Blood&Tissue DNA isolation kit. DNA damage level was analyzed by a RT-qPCR method based on the ability of DNA lesions to inhibit restriction enzyme cleavage, as described previously (http://www.ncbi.nlm.nih.gov/pubmed/25631007) using primers 5′-[…]-3′ and 5′-[…]-3′ (sense and anti sense, respectively). Briefly, genomic DNA (6 ng) was treated with 1 U TaqI for 15 min at 65° C. DNA damage frequency was calculated as 2exp−(ctTaql−ctnt), where ctTaql and ctnt represent CT values of TaqI-treated and non-treated genomic DNA, respectively.

NF-κB pathway = experiment: NF-κB luciferase reporter assay in NF-κB Reporter-HEK293 cells, TNFa stimulated; settings: FIG. 5
Description: The NF-κB reporter (luc)-HEK293 cell line is designed for monitoring the nuclear factor Kappa B (NF-κB) signal transduction pathways. It contains a firefly luciferase gene driven by four copies of NF-κB response element located upstream of the minimal TATA promoter. After activation by pro-inflammatory cytokines or stimulants of lymphokine receptors, endogenous NF-κB transcription factors bind to the DNA response elements, inducing transcription of the luciferase reporter gene.
NF-κB Reporter-HEK293 cells were cultured in MEM medium with 10% FBS, 1% non-essential amino acids, 1 mM Na-pyruvate, 1% Penn-strep, and 100 µg/ml of Hygromycin B.
To perform the NF-κB luciferase reporter assay, NF-κB Reporter-HEK293 cells were seeded at 40,000 cells per well into white clear-bottom 96-well microplate in 45 μl of growth medium without Hygromycin B. Cells were incubated at 37° C. and 5% CO2 overnight to allow them to recover and reattach. The following day a series of dilutions of compounds were made in assay medium (MEM medium with 0.5% FBS, 1% non-essential amino acids, 1 mM Na-pyruvate, 1% Penn-strep). The medium was removed from the wells and 45 μl of diluted compound was added to the cells. Assay medium with DMSO was added to the untreated control wells and cell-free control wells. The final concentration of DMSO was 0.25%. The cells were incubated overnight at 37° C. in CO2 incubator. […]
After treatment, cells were then lysed and a luciferase assay was performed using the ONE-Step luciferase assay system. […] Luminescence was measured using a luminometer (BioTek Synergy™ 2 microplate reader).
Reporter assays were performed in triplicate at each concentration. The luminescence intensity data were analyzed using the computer software, Graphpad Prism. In the absence of the compound, the luminescence intensity (Lt) in each data set was defined as 100%. In the absence of cells, the luminescence intensity (Lb) in each data set was defined as 0%. The percent luminescence in the presence of each compound was calculated according to the following equation: % Luminescence=(L−Lb)/(Lt−Lb), where L=the luminescence intensity in the presence of the compound, Lb=the luminescence intensity in the absence of cells, and Lt=the luminescence intensity in the absence of the compound. The values of % luminescence versus a series of compound concentrations were then plotted using non-linear regression analysis of a Sigmoidal dose-response curve generated with the equation Y=B+(T B)/1+10^((Log EC50-X)×Hill Slope), where Y=percent luminescence, B=minimum percent luminescence, T=maximum percent luminescence, X=logarithm of compound and Hill Slope=slope factor or Hill coefficient. The IC50 value was determined by the concentration causing a half-maximal percent activity.

ARPE-19 cells = experiment: oxidative stress (tert-butyl hydroperoxide) cytolysis assay in ARPE-19 retinal pigment epithelial cells
Experimental: In order to evaluate the potential of BIZ-101 to protective the eye from oxidative stress damage the compound was tested in a cell based assay. Oxidative stress was induced in an ARPE-19 cell line using tert-butyl hydroperoxide at different concentrations. The cellular viability was kinetically monitored and measured by analysing the plasma membrane integrity based on the incorporation of a non-permeant and fluorescent DNA intercalating agent that selectively stain cytolytic cells with comprised plasma membranes.
(§1) The ARPE-19 cell line was seeded and cultured in DMEM-F12 medium+10% SVF for 24 hrs in a 96 well plate. Cells were pre-treated or not with either fenofibric acid (25 μM) or compound BIZ-101 (10 μM) during this 24 hr period. After 24 hrs, the different concentrations of t-butyl hydroperoxide were added in the presence of a fluorescent DNA intercalating agent for the following monitoring. Live content time-lapse imaging was performed with a sampling rate of 1 image every 2 hr over a 96 hrs period. The number of fluorescent/cytolytic cells were counted and reported during the experiment. The treatment conditions were tested in one experiment session in a triplicate format.
Fenofibric acid was used at 25 μM and was ordered from Sigma Aldrich. The day of the pre-treatment, a 25 mM stock solution of fenofibric acid was prepared in DMSO and diluted in the complete culture medium at 25 μM. 100 μL of this solution or 100 μL of complete culture medium+0.1% DMSO replaced the 100 μL of the complete culture medium already present in the well. The day of the treatment with t-butyl hydroperoxide, a 2 times concentrated solution of fenofibric acid was freshly diluted in the complete culture medium and 50 μL of this solution or 50 μL of complete culture medium+0.2% DMSO were added to the 100 μL of the culture medium already present in the well.
Compound BIZ-101 was tested at a final concentration of 10 μM. A 10 mM predilution was prepared in DMSO from a 10 mM stock solution. The 10 mM solution of BIZ 101 was diluted in the complete culture medium at 10 μM. 100 μL, of this solution or 100 μL of the complete culture medium+0.1% DMSO replaced the 100 μL, of the complete culture medium already present in the well. The day of the treatment with t-butyl hydroperoxide, a 2 times concentrated solution of BIZ 101 was freshly diluted in the complete culture medium and 50 μL of this solution or 50 μL of complete culture medium+0.2% DMSO were added to the 100 μL of the culture medium already present in the well.
Preparation of the tert-butyl hydroperoxide [tBHP] solution: 0, 0.01 mM, 0.03 mM, 0.1 mM, 0.3 mM, 1 mM, 3 mM and 10 mM. A 4 times concentrated solution of tBHP was freshly diluted in the complete culture medium for each of the concentrations to be tested. 50 μL of the 4 times concentrated solution was added to the 150 μL of the cultured medium.
In order to evaluate the potential of BIZ-102 to protect the eye from oxidative stress damage the compound was tested in a cell based assay similar to Example 24 with the following changes. The oxidative stress in the ARPE-19 cell line was induced by using 3 different concentrations of tBHP: 10 μM, 30 μM and 100 μM and BIZ-102 was tested in 2 different concentrations: 1 μM and 10 μM.
as §1, with “with” for “with either fenofibric acid (25 μM) or”, “BIZ-102 (1 μM and 10” for “BIZ-101 (10”
Compound BIZ-102 was tested at a final concentration of 1 and 10 μM. […]

human PPARα = target: T1, human PPARα (Homo sapiens, UniProt Q07869); experiment: stable reporter HeLa cell line, GAL4-PPARα ligand activity; settings: 5 μM compound, relative to 1 μM GW7647; FIG. 6
T1 construct: expressed in transfected cells
T1 sequence (Q07869 239-466 limits assumed): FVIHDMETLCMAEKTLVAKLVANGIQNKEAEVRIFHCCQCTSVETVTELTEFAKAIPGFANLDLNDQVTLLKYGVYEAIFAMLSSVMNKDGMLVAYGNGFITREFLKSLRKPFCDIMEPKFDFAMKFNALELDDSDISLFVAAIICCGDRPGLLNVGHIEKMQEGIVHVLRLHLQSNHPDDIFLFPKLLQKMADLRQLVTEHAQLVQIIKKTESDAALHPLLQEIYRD
Description: (§2) To screen the human PPARα, PPARδ and PPARγ ligand activity of the compounds a stable reporter cell line was used (HeLa cell line). The stable reporter cell line express respectively a chimeric protein containing the ligand binding domain (LBD) of human PPARα, human PPARδ and human PPARγ fused to the yeast transactivator GAL4 DNA binding domain (DBD). The luciferase (Luc) reporter gene is driven by a pentamer of the GAL4 recognition sequence in front of a β-globin promoter. The use of GAL4-PPARα, GAL4-PPARδ and GAL4-PPARγ chimeric receptors allows for elimination of background activity from endogenous receptors and quantification of relative activity across the three PPAR subtypes with the same reporter gene. […] Luciferase activity was measured by a luminometer and luciferase activity was expressed as relative light units (RLU).
Day 1: Seed 96—well plate with PPAR cells. Cell appearance was checked using optical microscopy. Cells were cultivated at confluency (80-100%).
Day 2: The test articles dissolved in DMSO were added to the cells. The controls (positive controls and the solvent control) were included in each individual plate. […]
Day 3: To determine the PPAR subtype activity of the tested compounds, the percentage of PPAR ligand activity was calculated for each tested compound as follows: […]

human PPARγ = target: T2, human PPARγ (Homo sapiens, UniProt P37231); experiment: stable reporter HeLa cell line, GAL4-PPARγ ligand activity; settings: 5 μM compound, relative to 1 μM BRL49653; FIG. 7
T2 construct: expressed in transfected cells
T2 sequence (P37231 238-503 limits assumed): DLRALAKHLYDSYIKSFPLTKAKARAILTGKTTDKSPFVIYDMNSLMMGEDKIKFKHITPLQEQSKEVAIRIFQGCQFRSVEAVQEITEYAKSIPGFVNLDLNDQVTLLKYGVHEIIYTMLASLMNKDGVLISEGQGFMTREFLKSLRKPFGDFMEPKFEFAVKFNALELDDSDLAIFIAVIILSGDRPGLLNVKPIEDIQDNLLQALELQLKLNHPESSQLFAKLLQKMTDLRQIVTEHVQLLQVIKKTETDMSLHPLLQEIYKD
Description: as §2
Day 1: Seed 96—well plate with PPAR cells. Cell appearance was checked using optical microscopy. Cells were cultivated at confluency (80-100%). […]
Day 3: To determine the PPAR subtype activity of the tested compounds, the percentage of PPAR ligand activity was calculated for each tested compound as follows:
Percentage of PPARγ activity for the tested compound in 5 μM concentration=(RLUXcomp×100)/RLUBRL49653 where RLUBRL49653 is the luminescence measured from PPARγ cells incubated with 1 μM […] and expressed as Relative Light Units. […]

For `CC/C=C\C/C=C\C/C=C\C/C=C\C/C=C\CCC(CC)C(=O)O` (stereo not shown) [BIZ-101, 2-ethyleicosa-(all-Z)-5,8,11,14,17-pentaenoic Acid], the mtDNA damage (neuroblastoma cells) was “reduced mtDNA damage”, the “dose dependence of inhibitory effect on the NF-κB pathway” value (NF-κB pathway) was “dose dependent” and the “complete inhibition of the NF-κB pathway” value (NF-κB pathway; at high concentration) was “completely inhibited”. The “dose dependent cytotoxicity of tBHP” value (ARPE-19 cells; 6 hrs after addition of tBHP, 24 hr pre-treatment, fenofibric acid 25 μM, BIZ-101 10 μM) was “slightly decreased”, the “protective effects against tBHP cytotoxicity” value (ARPE-19 cells; 24 hrs after addition of t-BHP, fenofibric acid 25 μM, BIZ-101 10 μM) was “more efficient” and the “protective effect compared with fenofibric acid” value (ARPE-19 cells; BIZ-101 10 μM vs fenofibric acid 25 μM) was “much more potent”. For the same molecule, the “effect on retinal pigment epithelial cells during conditions of oxidative stress” value (ARPE-19 cells; overall conclusion) was “protective effect”.
With `CC/C=C\C/C=C\C/C=C\C/C=C\C/C=C\C/C=C\CC(C)C(=O)O` (stereo not shown) [BIZ-105, 2-methyldocosa-(all-Z)-4,7,10,13,16,19-hexaenoic Acid] the mtDNA damage (neuroblastoma cells) was “slightly reduced level of mtDNA damage”.
With `CC/C=C\C/C=C\C/C=C\C/C=C\C/C=C\CCOCC(=O)O` [BIZ-108, 3-oxa-(6Z,9Z,12Z,15Z,18Z)-heneicosa-(6,9,12,15,18)-pentaenoic Acid] the PPARα activity (human PPARα) was “all compounds except BIZ-108 had potent activity” and the PPARγ activation (human PPARγ) was “activated PPARγ except for the unsubstituted derivative BIZ-108”.
